Source: US9844546B2, “Antibody against human HIF hydroxylase” (OXFORD UNIVERSITY INNOVATION LIMITED, priority 2001, dated 2017)

Legend:
[1] = target: T1, VHL E3 ubiquitin ligase (Homo sapiens, UniProt P40337); test: VHL E3 interaction assay with 35S-labelled tat-ODD IVTT products; assay type: binding; conditions: after modification by cell extracts
T1 construct: expressed in transfected cells; host or cells: 786-0 cells stably transfected with pcDNA3 VHL.HA (whole extract, anti-HA immunoprecipitation)
T1 sequence (P40337 whole entry): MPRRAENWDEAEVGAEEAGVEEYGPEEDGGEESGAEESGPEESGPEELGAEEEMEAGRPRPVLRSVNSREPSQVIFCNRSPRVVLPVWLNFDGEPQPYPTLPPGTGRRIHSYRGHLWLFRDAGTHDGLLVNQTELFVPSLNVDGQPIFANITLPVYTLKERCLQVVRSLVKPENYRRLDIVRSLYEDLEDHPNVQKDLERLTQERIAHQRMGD
T1 sequence (Q15370 whole entry partner): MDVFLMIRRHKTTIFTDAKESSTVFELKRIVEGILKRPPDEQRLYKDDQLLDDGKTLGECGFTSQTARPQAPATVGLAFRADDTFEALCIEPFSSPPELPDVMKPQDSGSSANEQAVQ
T1 sequence (Q15369 whole entry partner): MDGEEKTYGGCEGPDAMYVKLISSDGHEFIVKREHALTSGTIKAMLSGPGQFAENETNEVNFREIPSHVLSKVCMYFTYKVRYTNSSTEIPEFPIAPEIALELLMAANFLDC
T1 sequence (Q13617 whole entry partner): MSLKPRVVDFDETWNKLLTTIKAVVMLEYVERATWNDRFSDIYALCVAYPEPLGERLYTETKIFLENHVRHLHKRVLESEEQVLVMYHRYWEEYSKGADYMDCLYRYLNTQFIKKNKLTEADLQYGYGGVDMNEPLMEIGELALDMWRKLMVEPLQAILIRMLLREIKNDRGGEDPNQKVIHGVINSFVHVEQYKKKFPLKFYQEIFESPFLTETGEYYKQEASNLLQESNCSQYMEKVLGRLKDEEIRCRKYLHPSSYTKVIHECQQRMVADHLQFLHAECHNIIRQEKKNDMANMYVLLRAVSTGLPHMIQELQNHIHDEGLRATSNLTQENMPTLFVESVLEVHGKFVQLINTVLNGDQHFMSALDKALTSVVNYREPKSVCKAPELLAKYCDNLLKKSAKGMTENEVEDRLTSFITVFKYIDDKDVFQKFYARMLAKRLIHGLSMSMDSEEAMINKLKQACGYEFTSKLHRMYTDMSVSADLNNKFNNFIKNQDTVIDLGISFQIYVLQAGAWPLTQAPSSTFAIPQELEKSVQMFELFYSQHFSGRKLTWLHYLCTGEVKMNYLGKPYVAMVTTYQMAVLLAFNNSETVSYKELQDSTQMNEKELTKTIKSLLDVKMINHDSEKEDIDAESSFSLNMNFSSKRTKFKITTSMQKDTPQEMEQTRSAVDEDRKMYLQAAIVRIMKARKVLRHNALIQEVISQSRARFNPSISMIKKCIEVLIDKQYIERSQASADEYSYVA
T1 sequence (P62877 whole entry partner): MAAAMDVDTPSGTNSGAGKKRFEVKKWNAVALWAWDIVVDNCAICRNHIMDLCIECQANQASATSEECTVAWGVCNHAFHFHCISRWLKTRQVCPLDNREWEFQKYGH
Description: Concordant with the ubiquitination assays discussed above NODD (HIF-1α 343-417) and CODD (HIF-1α 549-582) polypeptides, but not their corresponding proline mutants (HIF-1α 343-417/P402A and HIF-1α 549-582/P564G), bound to VHL E3 ubiquitin ligase after modification by cell extracts. The ^35S-methionine labelled recombinant polypeptides therefore interacted with VHL, supporting the results of the ubiquitination experiments discussed above. The interaction was enhanced by the presence of cell extracts which promote hydroxylation of the prolines at positions 402 and 564 ^19. In contrast, no binding occurred using peptides in which prolines were mutated.
For VHL E3 interaction assays ^35S-methionine labelled HIF-1a substrates were prepared by transcription/translation using TnT7 rabbit reticulocyte lysate (Promega). 100 μM DFO was added to the reaction to suppress prolyl hydroxylase activity of the reticulocyte lysate. Substrate modification was achieved by incubation of HIF-1α translate with RCC4 cell lysate in the presence of ferrous chloride (100 μM). Interaction with VHL E3 was analysed as described previously ^21.

[2] = test system: U2OS and Hep3B cells; test: HRE-dependent luciferase reporter assay after transient transfection of NODD/CODD plasmids; assay type: cell-based, human; conditions: normoxic conditions, 24 hours
Description: Since normoxic HIFα degradation is saturable ^17 and depends on sub-regions within the ODD we tested whether peptides encoding the HIF-1α amino terminal ODD (NODD) and carboxy terminal ODD (CODD) ^21 could affect HIF activity as measured by hypoxia response element (HRE)-dependent reporter gene expression. Briefly, Degradation is prevented by the NODD and CODD polypeptides competing for prolyl hydroxylation and/or VHL binding, thereby blocking subsequent ubiquitination. We constructed plasmids encoding NODD (HIF-1-α aa 343-417) or CODD (HIF-1-α aa 549-582) linked to nuclear localisation sequences and a c-myc epitope tag. These plasmids were transiently co-transfected into U2OS and Hep3B cells with an HRE-dependent luciferase reporter plasmid. […]
For reporter gene assays DNA fragments encoding HIF-1α amino acids 343-417, 380-417, 390-417, 390-410, 343-400, 530-95, 530-82, 549-82, 556-74 and 530-62 were generated by PCR using oligonucleotides containing 5′ SacII or 3′ AscI sites and inserted into a pCMV/myc/nuc (Invitrogen) derivative bearing these sites in frame with the NLS and epitope tag. […] To generate tet-operator dependent plasmids the open reading frames from the aa343-417 and aa549-82 constructs were subcloned into pUHD 10 ^34. […]

[3] = test system: U2OS cells; test: U2OS cells stably transfected with doxycycline-inducible NODD or CODD; assay type: cell-based, human
Method: To explore further the therapeutic potential of NODD and CODD polypeptides to activate endogenous HIF we stably transfected U2OS cells with doxycycline-inducible NODD (doxNODD) and CODD constructs (doxCODD) encoding identical sequences to those used for transient transfections.
Cells stably transfected with NODD or CODD controlled by the tetracycline-inducible system were exposed to doxycycline. Cell extracts were prepared 0, 16, 24 and 48 hours after exposure to doxycycline. The extracts of doxNODD (HIF-1α aa343-417), doxCODD (HIF-1α aa549-82) and control cells (empty vector) were then immunoblotted for HIF-1α protein. Increased HIF-1α signals were detected from 16-48 hours following doxycycline administration in doxNODD and doxCODD cells but not in empty vector cells. Levels of HIF-1α induced by hypoxia were also measured for comparison. The endogenous HIF-1α induction was doxycycline dose (0.2-3.2 μg/ml) and time dependent, peaking after 48 hours. Maximal levels were about 20% and about 70% of HIF-1α levels seen following hypoxic or DFO treatment of the doxNODD and doxCODD cells respectively. […]
Stably transfected cell lines were generated by transfecting U2OS cells bearing the reverse tetracycline responsive transactivator ^34 and the tetKRAB silencer construct ^36 with pUHD/HIF plasmids. Following selection in G418 (1 mg/ml) individual colonies were picked. DoxNODD (F21) and doxCODD (myc19) clones expressed pUHD/HIF-1aa343-417/3NLS/c-myc and pUHD/HIF-1α aa549-82/3NLS/c-myc respectively. […]
Cell extracts were prepared in buffer (8M urea, 10% glycerol, 1% SDS, 5 mM DTT, 10 mM Tris/pH 6.8), separated by SDS-PAGE and transferred to Immobilon-P membrane (Millipore). Primary antibodies against HIF-1α, c-myc tag and HA tag were from Transduction Laboratories, Innogenex and Roche Molecular respectively. […]

[4] = test system: human microvascular endothelial cells (HMEC-1); test: Tubule formation assay, co-culture with HMEC-1; assay type: cell-based; conditions: intermittent doxycycline over 5 days
Description: Artificial activation of the HIF signalling pathway using the methods of the invention should induce angiogenesis and will therefore be of potential therapeutic use in ischaemic disease. We tested the effect of polypeptide induced HIF stabilisation in an in vitro angiogenesis assay, co-culturing human microvascular endothelial cells (HMEC-1) with empty vector transfected or doxCODD cells. In view of the possibility of sustained activation inducing a negative feedback loop we opted to test the effects of intermittent induction. […] As a positive control epidermal Growth Factor (EGF; 5 ng/ml), which is known to induce growth of HMEC-1, was used. To extend these observations into an in vivo model we assayed the effects of injecting tat-fusion proteins into polyurethane sponges implanted subcutaneously in mice. Intermittent injections on days 1, 2, 4 and 5 led to a markedly accelerated angiogenic response assayed on day 7 when compared with sponges injected with proline mutant fusion proteins, excluding a contribution from the tat component ^28. […]
doxCODD or empty vector cells were co-cultivated with human microvascular endothelial cells (HMEC-1) in a ratio of 2:1 in DMEM 10% doxycycline free FCS (Clontech), 2 mM Glutamine and 100 U/ml Penicillin/100 μg/ml Streptomycin. […] Endothelial cells were detected using antibodies to von Willebrand factor (vWF) (Dako).

## CODD: HIF-1α carboxy terminal ODD polypeptide (aa 549-582) with nuclear localisation sequences and c-myc tag, plasmid expressed
[1]
  binding to VHL E3 ubiquitin ligase: bound
[2]
  HRE-dependent relative luciferase activity: increased relative luciferase activity
[3]; 24 hours induction with doxycycline, versus empty vector cells
  3H-glucose uptake: enhanced uptake of ^3H-glucose
[3]; cell extracts versus empty vector extracts
  ubiquitination of exogenous 35S-methionine labelled HIF-1α: markedly reduced
[3]; doxycycline 0.2-3.2 μg/ml, peaking after 48 hours
  Maximal HIF-1α level relative to hypoxic or DFO treatment: about 70%
[3]; doxycycline repeatedly added, 0-8 days
  Glut-1 mRNA (ribonuclease protection): increased for the first 4 days and then declined
[3]; doxycycline, 24 and 48 hours
  CAIX mRNA (ribonuclease protection): markedly induced mRNA levels
[4]
  tubule formation of co-cultured endothelial cells: assembly of co-cultured endothelial cells into complex tubular structures
